Data: the supplement of paper PMC10307832

How the values were obtained:
Assay in all cases: relative viability (nuclei count vs DMSO), 5 days (fraction); higher = more cells survive
[1] = compound: COc1cc(-c2nn([C@H]3CC[C@H](N4CCN(C(C)=O)CC4)CC3)c3ncnc(N)c23)ccc1NC(=O)c1cc2ccccc2n1C + C[C@@H](Oc1cc(-c2cnn(C3CCNCC3)c2)cnc1N)c1c(Cl)ccc(F)c1Cl [Crizotinib] (partner 1 µM)
How it was run: (§1)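 Five library-drug doses in √10 steps were combined with a fixed anchor-drug dose, or a single drug was given alone, by pin tool to lung cancer cell lines in 1536-well plates the day after seeding. Nuclei were stained and counted after 5 days. Relative viability is the nuclei count in treated wells over that in vehicle wells, taken as the median of duplicate plates.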

Midostaurin + Olaparib = compound: CO[C@@H]1[C@H](N(C)C(=O)c2ccccc2)C[C@H]2O[C@]1(C)n1c3ccccc3c3c4c(c5c6ccccc6n2c5c31)C(=O)NC4 [Midostaurin] + O=C(c1cc(Cc2n[nH]c(=O)c3ccccc23)ccc1F)N1CCN(C(=O)C2CC2)CC1 [Olaparib] (partner 8 µM)
How it was run: as §1

Midostaurin + AZD7762 = compound: CO[C@@H]1[C@H](N(C)C(=O)c2ccccc2)C[C@H]2O[C@]1(C)n1c3ccccc3c3c4c(c5c6ccccc6n2c5c31)C(=O)NC4 [Midostaurin] + NC(=O)Nc1cc(-c2cccc(F)c2)sc1C(=O)N[C@H]1CCCNC1 [AZD7762] (partner 0.2 µM)
How it was run: as §1

[2] = compound: COc1cc(-c2nn([C@H]3CC[C@H](N4CCN(C(C)=O)CC4)CC3)c3ncnc(N)c23)ccc1NC(=O)c1cc2ccccc2n1C + COc1cc2c(Oc3ccc(NC(=O)C4(C(=O)Nc5ccc(F)cc5)CC4)cc3F)ccnc2cc1OCCCN1CCOCC1 [Foretinib] (partner 0.25 µM)
How it was run: as §1

Midostaurin + Vorinostat = compound: CO[C@@H]1[C@H](N(C)C(=O)c2ccccc2)C[C@H]2O[C@]1(C)n1c3ccccc3c3c4c(c5c6ccccc6n2c5c31)C(=O)NC4 [Midostaurin] + O=C(CCCCCCC(=O)Nc1ccccc1)NO [Vorinostat] (partner 1 µM)
How it was run: as §1

Cell Line	relative viability ([1]; first compound 0.0128 µM)	relative viability ([1]; first compound 0.04048 µM)	relative viability ([1]; first compound 0.128 µM)	relative viability ([1]; first compound 1.28 µM)	relative viability (Midostaurin + Olaparib; first compound 0.01 µM)	relative viability (Midostaurin + Olaparib; first compound 0.03162 µM)	relative viability (Midostaurin + Olaparib; first compound 0.1 µM)	relative viability (Midostaurin + Olaparib; first compound 0.3162 µM)	relative viability (Midostaurin + AZD7762; first compound 0.01 µM)	relative viability (Midostaurin + AZD7762; first compound 0.03162 µM)	relative viability (Midostaurin + AZD7762; first compound 0.1 µM)	relative viability (Midostaurin + AZD7762; first compound 0.3162 µM)	relative viability ([2]; first compound 0.0128 µM)	relative viability ([2]; first compound 0.04048 µM)	relative viability ([2]; first compound 0.128 µM)	relative viability ([2]; first compound 1.28 µM)	relative viability (Midostaurin + Vorinostat; first compound 0.01 µM)	relative viability (Midostaurin + Vorinostat; first compound 0.03162 µM)	relative viability (Midostaurin + Vorinostat; first compound 0.1 µM)	relative viability (Midostaurin + Vorinostat; first compound 0.3162 µM)
201T	1.02	1.05	0.941	0.815	0.833	0.801	0.815	0.86	0.509	0.687	0.595	0.66	1.06	1.19	0.859	0.594	0.991	0.871	1.02	1.08
A549	0.854	1.02	0.686	0.719	0.256	0.39	0.359	0.216					0.927	0.991	0.969	0.935				
A-427	1.04	0.771	0.872	0.803	0.711	0.654	0.713	0.725	0.742	0.727	0.871	0.723	1.03		0.988	0.884	0.883	0.887	0.848	0.937
ABC-1	1.01	0.98	0.87	0.766	0.691	1.31	0.59	0.928	0.844	0.824	0.729		0.967	0.953	1.05	0.881	1.23	1.37	1.08	0.996
BEN	0.8	0.996	0.756	0.576	1.12	1.24	0.928	1.13	0.743	0.659	0.722	0.726	0.502	0.642	0.602	0.45	0.594	0.552	0.707	0.598
CAL-12T	0.621	0.818	0.581	0.413	0.76	0.585	0.681	0.633	0.608	0.553	0.469	0.452	1.13	1.06	1.31	1.12	0.689	0.742	0.734	0.457
COR-L23	0.59	0.845	0.675	0.602	0.386	0.269	0.279	0.255					1.08	1.14	0.894	0.981	0.456	0.311	0.276	0.205
COR-L 105	0.771	0.864	0.594	0.678	0.829	0.626	0.527	0.616					1.04	1.34	0.994	0.598	0.899	0.846	0.702	0.535
Calu-6	0.692	0.806	0.609	0.596	0.421	0.638	0.509	0.495					0.905	0.813	0.823	0.659				
ChaGo-K-1	1.17	1.13	1.03	0.882	0.439	0.404	0.338	0.433	0.895	0.837	0.677	0.946	0.994	0.897	0.892	0.742	0.746	0.811	0.619	0.714
EBC-1	0.193	0.198	0.24	0.185	0.719	0.589	0.673	0.679					0.104	0.0846	0.126	0.112				
EKVX	0.986	1.04	0.755	0.359	0.836	0.847	0.738	0.775	0.604	0.713	0.883	0.778	0.881	0.755	0.744	0.575	0.735	0.714	0.808	0.583
EMC-BAC-2	0.759	0.848	0.731	0.532	0.459	0.497	0.411	0.374	1.08	1.03	1.04	1.08	1.06	1.05	0.968	0.617	0.415	0.437	0.407	0.476
EPLC-272H	0.974	0.924	0.984	0.701	0.659	0.729	0.658	0.372	0.208	0.287	0.259	0.165	0.78		0.705	0.37	0.47	0.436	0.426	0.393
H3255	0.938	0.981	0.81	0.468	0.515	0.538	0.498	0.533	0.857	0.786	0.915	0.89	0.761	0.813	0.849	0.557	0.86	0.615	0.765	0.744
HARA	1.02	1.1	0.914	0.623	0.786	0.842	0.644	0.752	0.301	0.475	0.394	0.299	1.07	0.846	0.687	0.332	0.482	0.603	0.466	0.505
HCC-44	0.931	0.825	0.847	1.06	0.999	0.957	0.983	1	0.961	0.978	0.998	0.986					1.08	1.06	1.11	1.16
IA-LM	1.02	1.07	0.903	1.1	0.746	0.653	0.748	0.881					1.19	1.1	1.16	0.97	0.822	0.889	0.943	0.907
NCI-H520	0.763	0.621	0.628	0.549	0.32	0.318	0.266	0.249					0.755	0.731	0.65	0.613	0.684	0.702	0.694	0.412

Cell Line	relative viability ([1]; first compound 0.0128 µM)	relative viability ([1]; first compound 0.04048 µM)	relative viability ([1]; first compound 0.128 µM)	relative viability ([1]; first compound 1.28 µM)	relative viability (Midostaurin + Olaparib; first compound 0.01 µM)	relative viability (Midostaurin + Olaparib; first compound 0.03162 µM)	relative viability (Midostaurin + Olaparib; first compound 0.1 µM)	relative viability (Midostaurin + Olaparib; first compound 0.3162 µM)	relative viability (Midostaurin + AZD7762; first compound 0.01 µM)	relative viability (Midostaurin + AZD7762; first compound 0.03162 µM)	relative viability (Midostaurin + AZD7762; first compound 0.1 µM)	relative viability (Midostaurin + AZD7762; first compound 0.3162 µM)	relative viability ([2]; first compound 0.0128 µM)	relative viability ([2]; first compound 0.04048 µM)	relative viability ([2]; first compound 0.128 µM)	relative viability ([2]; first compound 1.28 µM)	relative viability (Midostaurin + Vorinostat; first compound 0.01 µM)	relative viability (Midostaurin + Vorinostat; first compound 0.03162 µM)	relative viability (Midostaurin + Vorinostat; first compound 0.1 µM)	relative viability (Midostaurin + Vorinostat; first compound 0.3162 µM)
NCI-H522					0.546	0.748	0.578	0.682	0.86	0.833	0.864	0.91					0.862	1.18	0.827	1.03
NCI-H661	1.09	1.03	1.07	1.1	0.721	0.7	0.714	0.717					1.16	1.13	1.01	1.03	0.777	0.72	0.792	0.739
NCI-H1299	0.966	1.07	0.987	1.13	0.919	0.942	0.985	0.924					1.13	1.23	1.14	1.08				
NCI-H1395					0.44	0.468	0.454	0.465	0.407	0.427	0.408	0.429	0.975	0.95	0.9	0.72	0.651	0.856	0.671	0.682
NCI-H1563	0.625	0.805	0.926	0.729									0.913	0.997	0.936	0.685				
NCI-H1623													0.855	0.696	0.763	0.595				
NCI-H1648					1.08			0.767	0.766			0.656					0.534			0.497
NCI-H1650	0.898	1.07	0.957	0.638	0.945	0.793	0.727	0.703					1.07	1.45	1.14	0.911	0.57	0.606	0.585	0.793
NCI-H1703	0.585	0.73	0.496	0.206	0.507	0.421	0.298	0.216	0.141	0.115	0.123	0.12	0.297		0.262	0.167				
NCI-H1792	0.958	1.01	0.88	0.896	0.383	0.308	0.249	0.146	0.786	0.725	0.67	0.176								
NCI-H1793					0.923	0.804	0.644	0.431	0.395	0.48	0.388	0.213	0.669	0.809	0.648	0.406	0.766	0.789	0.854	0.296
NCI-H2009	1.09	0.94	1.04	0.906	0.696	0.668	0.611	0.512					1.22	1.12	1.22	0.896	0.808	0.745	0.703	0.657
NCI-H2023	0.587	0.736	0.592	0.412	0.494	0.505	0.396	0.246					0.802	0.804	0.717	0.535	0.601	0.78	0.5	0.146
NCI-H2228	0.426	0.489	0.428	0.276	0.618	0.588	0.744	0.556					0.92	1.05	0.825	0.622	0.878	0.424	0.716	0.356
NCI-H2342					0.419	0.394	0.422	0.489	0.558	0.503	0.489	0.451	0.958	1.11	0.914	0.731	0.741	0.764	0.836	0.831
SK-LU-1	1	0.975	0.658	0.506	0.471	0.439	0.443	0.346					0.769	0.798	0.691	0.376	0.735	0.765	0.685	0.47
SK-MES-1	1.02	1.04	0.869	0.971	0.634	0.595	0.66	0.473					0.894	1.14	0.986	1	1.07	0.968	0.982	1.08
SW 900					0.826	1.08	0.852	0.575	0.755	0.684	0.617	0.476	0.813	0.91	0.843	0.66	0.402	0.502	0.52	0.458
SW 1573	0.775	0.703	0.636	0.652	0.503	0.547	0.403	0.249					0.808	0.869	0.887	0.728	0.717	1.09	0.732	1.02
